O=C1C=CC(=O)c2ccccc21
Conditions | solubility (mole fraction)
in acetone, 293.27 K | 0.0362
in acetone, 295.46 K | 0.0373
in acetone, 295.8 K | 0.0377
in acetone, 298.25 K | 0.0399
in acetone, 298.51 K | 0.0403
in acetone, 299.07 K | 0.0411
in acetone, 300.66 K | 0.0437
in acetone, 302.06 K | 0.0467
in acetone, 304 K | 0.0503
in acetone, 305.3 K | 0.0532
in acetone, 308.24 K | 0.0584
in acetone, 311.24 K | 0.0639
in acetone, 312.91 K | 0.0683
in acetone, 314.97 K | 0.0727
in acetone, 316.33 K | 0.0767
in acetone, 318.06 K | 0.081
in acetone, 319.63 K | 0.0856
in ethanol, 279.8 K | 0.00145
in ethanol, 285.78 K | 0.00221
in ethanol, 289.05 K | 0.00277
in ethanol, 292.72 K | 0.00335
in ethanol, 296.52 K | 0.00412
in ethanol, 299.87 K | 0.00487
in ethanol, 303.25 K | 0.00596
in ethanol, 305.99 K | 0.00696
in ethanol, 309.13 K | 0.00825
in ethanol, 311.85 K | 0.00945
in ethanol, 314.73 K | 0.0109
in ethanol, 316.84 K | 0.0121
in ethanol, 319.52 K | 0.0134
in ethanol, 321.15 K | 0.0145
in ethanol, 322.93 K | 0.0157
in ethanol, 328.25 K | 0.0199
in ethanol, 329.13 K | 0.0212
in ethanol, 331.34 K | 0.0235
in ethanol, 333.04 K | 0.0256
in ethanol, 334.13 K | 0.0274
in ethanol, 335.43 K | 0.0294
in n-butanol, 302.1 K | 0.00657
in n-butanol, 307.2 K | 0.00908
in n-butanol, 312.32 K | 0.012
in n-butanol, 317.1 K | 0.0152
in n-butanol, 319.33 K | 0.017
in n-butanol, 320.94 K | 0.0183
in n-butanol, 322.16 K | 0.0199
in n-butanol, 325.85 K | 0.0238
in n-butanol, 330.35 K | 0.0307
in n-butanol, 334.33 K | 0.0377
in n-butanol, 336.45 K | 0.0434
in n-butanol, 339.23 K | 0.05
in n-butanol, 341.3 K | 0.056
in n-butanol, 343.26 K | 0.0624
in n-butanol, 344.6 K | 0.0695
in n-butanol, 346.03 K | 0.0763
in toluene, 294.1 K | 0.0476
in toluene, 297.82 K | 0.0537
in toluene, 300.35 K | 0.0585
in toluene, 302.68 K | 0.0631
in toluene, 304.44 K | 0.0668
in toluene, 306.58 K | 0.0723
in toluene, 310.16 K | 0.081
in toluene, 313.15 K | 0.089
in toluene, 315.25 K | 0.094
in toluene, 317.27 K | 0.0994
in toluene, 319.93 K | 0.107
in toluene, 321.45 K | 0.113
in toluene, 322.53 K | 0.116
in toluene, 322.93 K | 0.118
in toluene, 327.2 K | 0.133
in toluene, 330.45 K | 0.145
in toluene, 331.95 K | 0.153

— BigSolDB 2.1
